Measurements taken from ChEMBL document CHEMBL5523681, “Lysosome-targeted Aza-BODIPY photosensitizers for anti-cancer photodynamic therapy” (Bioorg Med Chem, 2024).
Activity calls are given as the source filed them. No cut-off for these calls is given here.

Tested on: not listed separately
Experiment: Stability of compound in emulsified PBS buffer under dark condition
Assay type: physicochemical
Conditions: not given
With `CCN(CC)Cc1ccc(C2=C(I)C(c3ccc(OC)cc3)=[N+]3C2=Nc2c(-c4ccccc4)c(I)c(-c4ccc(OC)cc4)n2[B-]3(F)F)cc1` the Stability was “Unstable”.

Tested on: not listed separately
Experiment: Dark toxicity in human HeLa cells incubated for 3 hrs by CCK-8 assay
Assay type: cell-based
Conditions: not given
In the case of `COc1ccc(C2=[N+]3C(=Nc4c(-c5ccccc5)cc(-c5ccc(OC)cc5)n4[B-]3(F)F)C(c3ccccc3)=C2I)cc1`, the IC50 at 3 h is reported as greater than 50 µM.
For `CCN(CC)Cc1ccc(C2=C(I)C(c3ccc(OC)cc3)=[N+]3C2=Nc2c(-c4ccccc4)c(I)c(-c4ccc(OC)cc4)n2[B-]3(F)F)cc1`, the IC50 at 3 h was greater than 50 µM.

Tested on: HeLa
Experiment: Cytotoxicity against human HeLa cells preincubated with compound for 3 hrs followed by 81 J/cm2 light irradiation and measured after 24 hrs by CCK8 assay
Assay type: functional, cell-based
Conditions: light or radiation study
In the case of `COc1ccc(C2=[N+]3C(=Nc4c(-c5ccccc5)cc(-c5ccc(OC)cc5)n4[B-]3(F)F)C(c3ccccc3)=C2I)cc1`, the IC50 is reported as 26.7 nM.
In the case of `CCN(CC)Cc1ccc(C2=C(I)C(c3ccc(OC)cc3)=[N+]3C2=Nc2c(-c4ccccc4)c(I)c(-c4ccc(OC)cc4)n2[B-]3(F)F)cc1`, the IC50 is reported as 60.8 nM.

Tested on: not listed separately
Experiment: Ratio of singlet oxygen quantum yield in DMF at pH 5.2 in presence of HCl to singlet oxygen quantum yield in DMF at pH 7
Assay type: functional
Conditions: not given
`COc1ccc(C2=[N+]3C(=Nc4c(-c5ccccc5)cc(-c5ccc(OC)cc5)n4[B-]3(F)F)C(c3ccccc3)=C2I)cc1` showed a Ratio of 0.98.
In the case of `CCN(CC)Cc1ccc(C2=C(I)C(c3ccc(OC)cc3)=[N+]3C2=Nc2c(-c4ccccc4)c(I)c(-c4ccc(OC)cc4)n2[B-]3(F)F)cc1`, the Ratio is reported as 1.28.

Tested on: not listed separately
Experiment: Stability of compound in CH3CN under dark condition
Assay type: physicochemical
Conditions: not given
With `CCN(CC)Cc1ccc(C2=C(I)C(c3ccc(OC)cc3)=[N+]3C2=Nc2c(-c4ccccc4)c(I)c(-c4ccc(OC)cc4)n2[B-]3(F)F)cc1` the Stability was “Unstable”.

Tested on: not listed separately
Experiment: Toxicity in female BALB/c nude mouse xenografted with human HeLa cells assessed as decrease in body weight at 2 mg/kg, iv preadministered with compound for 3 hrs followed by 54 J/cm2 light irradiation and measured after 24 days
Assay type: organism-based
Conditions: in vivo, 576 h, time 24 day
For `COc1ccc(C2=[N+]3C(=Nc4c(-c5ccccc5)cc(-c5ccc(OC)cc5)n4[B-]3(F)F)C(c3ccccc3)=C2I)cc1`, the Activity was “Non-Toxic”.

Tested on: HepG2
Experiment: Cytotoxicity against human HepG2 cells preincubated with compound for 3 hrs followed by 81 J/cm2 light irradiation and measured after 24 hrs by CCK8 assay
Assay type: functional, cell-based
Conditions: HepG2, light or radiation study
`COc1ccc(C2=[N+]3C(=Nc4c(-c5ccccc5)cc(-c5ccc(OC)cc5)n4[B-]3(F)F)C(c3ccccc3)=C2I)cc1` showed an IC50 of 38.6 nM.
Compound `CCN(CC)Cc1ccc(C2=C(I)C(c3ccc(OC)cc3)=[N+]3C2=Nc2c(-c4ccccc4)c(I)c(-c4ccc(OC)cc4)n2[B-]3(F)F)cc1` has an IC50 of 132 nM.

Tested on: not listed separately
Experiment: Photosensitizing ability of the compound in PBS at pH 7.4 assessed as singlet oxygen production by measuring relative degradation rate of DPBF at 411 nm under photoirradiation with 90 mW/cm2 light by absorbance based assay
Assay type: functional
Conditions: not given
For `COc1ccc(C2=[N+]3C(=Nc4c(-c5ccccc5)cc(-c5ccc(OC)cc5)n4[B-]3(F)F)C(c3ccccc3)=C2I)cc1`, the Activity was 1.18.
`CCN(CC)Cc1ccc(C2=C(I)C(c3ccc(OC)cc3)=[N+]3C2=Nc2c(-c4ccccc4)c(I)c(-c4ccc(OC)cc4)n2[B-]3(F)F)cc1` gave an Activity of 0.87.

Tested on: not listed separately
Experiment: Toxicity in female BALB/c nude mouse xenografted with human HeLa cells assessed as decrease in body weight at 2 mg/kg, iv preadministered with compound for 3 hrs followed by 54 J/cm2 light irradiation and measured after 10 days
Assay type: organism-based
Conditions: in vivo, 240 h, time 10 day
For `C=Cc1c(C)c2cc3nc(c(CC(=O)O)c4[nH]c(cc5nc(cc1[nH]2)C(C)=C5CC)c(C)c4C(=O)O)[C@@H](CCC(=O)O)[C@@H]3C` [CHLORIN E6], the Activity was “Toxic”.

Tested on: HeLa
Experiment: Antitumor activity against human HeLa cells xenografted in female BALB/c nude mouse assessed as inhibition of tumor growth at 2 mg/kg, iv preadministered with compound for 3 hrs followed by 54 J/cm2 light irradiation and measured after 24 days
Assay type: functional, organism-based
Conditions: time 24.0 day
In the case of `COc1ccc(C2=[N+]3C(=Nc4c(-c5ccccc5)cc(-c5ccc(OC)cc5)n4[B-]3(F)F)C(c3ccccc3)=C2I)cc1`, the Activity is reported as “Active”.
In the case of `C=Cc1c(C)c2cc3nc(c(CC(=O)O)c4[nH]c(cc5nc(cc1[nH]2)C(C)=C5CC)c(C)c4C(=O)O)[C@@H](CCC(=O)O)[C@@H]3C` [CHLORIN E6], the Activity is reported as “Active”.

Tested on: not listed separately
Experiment: Photosensitizing ability of the compound in DMF at pH 7 assessed as singlet oxygen quantum yield
Assay type: functional
Conditions: not given
In the case of `COc1ccc(C2=[N+]3C(=Nc4c(-c5ccccc5)cc(-c5ccc(OC)cc5)n4[B-]3(F)F)C(c3ccccc3)=C2I)cc1`, the Activity is reported as 0.52.
Work on `CCN(CC)Cc1ccc(C2=C(I)C(c3ccc(OC)cc3)=[N+]3C2=Nc2c(-c4ccccc4)c(I)c(-c4ccc(OC)cc4)n2[B-]3(F)F)cc1` yielded an Activity of 0.58.

Tested on: not listed separately
Experiment: Drug localization in mitochondria of human HeLa cells at 5 uM incubated for 2 hrs by Mito-tracker green dye based confocal scanning microscopic analysis
Assay type: ADME
Conditions: not given
In the case of `COc1ccc(C2=[N+]3C(=Nc4c(-c5ccccc5)cc(-c5ccc(OC)cc5)n4[B-]3(F)F)C(c3ccccc3)=C2I)cc1`, the Drug uptake is reported as “Not Active”.

Tested on: not listed separately
Experiment: Photostability of compound in emulsified PBS buffer in presence of […] light irradiation measured upto 10 mins by absorption based assay
Assay type: physicochemical
Conditions: not given
In the case of `COc1ccc(C2=[N+]3C(=Nc4c(-c5ccccc5)cc(-c5ccc(OC)cc5)n4[B-]3(F)F)C(c3ccccc3)=C2I)cc1`, the Stability is reported as “Stable”.
With `CCN(CC)Cc1ccc(C2=C(I)C(c3ccc(OC)cc3)=[N+]3C2=Nc2c(-c4ccccc4)c(I)c(-c4ccc(OC)cc4)n2[B-]3(F)F)cc1` the Stability was “Unstable”.

Tested on: B16-F10
Experiment: Cytotoxicity against mouse B16-F10 cells preincubated with compound for 3 hrs followed by 81 J/cm2 light irradiation and measured after 24 hrs by CCK8 assay
Assay type: functional, cell-based
Conditions: B16-F10, light or radiation study
Work on `COc1ccc(C2=[N+]3C(=Nc4c(-c5ccccc5)cc(-c5ccc(OC)cc5)n4[B-]3(F)F)C(c3ccccc3)=C2I)cc1` yielded an IC50 of 155 nM.
In the case of `CCN(CC)Cc1ccc(C2=C(I)C(c3ccc(OC)cc3)=[N+]3C2=Nc2c(-c4ccccc4)c(I)c(-c4ccc(OC)cc4)n2[B-]3(F)F)cc1`, the IC50 is reported as 78.6 nM.

Tested on: not listed separately
Experiment: Dark toxicity in human HepG2 cells incubated for 3 hrs by CCK-8 assay
Assay type: cell-based
Conditions: not given
Compound `COc1ccc(C2=[N+]3C(=Nc4c(-c5ccccc5)cc(-c5ccc(OC)cc5)n4[B-]3(F)F)C(c3ccccc3)=C2I)cc1` has an IC50 at 3 h greater than 50 µM.
In the case of `CCN(CC)Cc1ccc(C2=C(I)C(c3ccc(OC)cc3)=[N+]3C2=Nc2c(-c4ccccc4)c(I)c(-c4ccc(OC)cc4)n2[B-]3(F)F)cc1`, the IC50 at 3 h is reported as 49.4 µM.

Tested on: not listed separately
Experiment: Drug localization in endoplasmic reticulum of human HeLa cells at 5 uM incubated for 2 hrs by ER-Tracker blue dye based confocal scanning microscopic analysis
Assay type: ADME, subcellular
Conditions: not given
In the case of `COc1ccc(C2=[N+]3C(=Nc4c(-c5ccccc5)cc(-c5ccc(OC)cc5)n4[B-]3(F)F)C(c3ccccc3)=C2I)cc1`, the Drug uptake is reported as “Not Active”.

Tested on: not listed separately
Experiment: Photosensitizing ability of the compound in DMF at pH 5.2 assessed as singlet oxygen quantum yield in presence of HCl
Assay type: functional
Conditions: not given
For `COc1ccc(C2=[N+]3C(=Nc4c(-c5ccccc5)cc(-c5ccc(OC)cc5)n4[B-]3(F)F)C(c3ccccc3)=C2I)cc1`, the Activity was 0.51.
Compound `CCN(CC)Cc1ccc(C2=C(I)C(c3ccc(OC)cc3)=[N+]3C2=Nc2c(-c4ccccc4)c(I)c(-c4ccc(OC)cc4)n2[B-]3(F)F)cc1` has an Activity of 0.74.

Tested on: not listed separately
Experiment: Ratio of relative degradation rate of DPBF in PBS at pH 5.2 in presence of HCl to relative degradation rate of DPBF in PBS at pH 7
Assay type: physicochemical
Conditions: buffer
Compound `COc1ccc(C2=[N+]3C(=Nc4c(-c5ccccc5)cc(-c5ccc(OC)cc5)n4[B-]3(F)F)C(c3ccccc3)=C2I)cc1` has a Ratio of 1.01.
In the case of `CCN(CC)Cc1ccc(C2=C(I)C(c3ccc(OC)cc3)=[N+]3C2=Nc2c(-c4ccccc4)c(I)c(-c4ccc(OC)cc4)n2[B-]3(F)F)cc1`, the Ratio is reported as 1.13.

Tested on: not listed separately
Experiment: Photosensitizing ability of the compound in PBS at pH 5.2 in presence of HCl assessed as singlet oxygen production by measuring relative degradation rate of DPBF at 411 nm under photoirradiation with 90 mW/cm2 light by absorbance based assay
Assay type: functional
Conditions: not given
Work on `COc1ccc(C2=[N+]3C(=Nc4c(-c5ccccc5)cc(-c5ccc(OC)cc5)n4[B-]3(F)F)C(c3ccccc3)=C2I)cc1` yielded an Activity of 1.19.
Work on `CCN(CC)Cc1ccc(C2=C(I)C(c3ccc(OC)cc3)=[N+]3C2=Nc2c(-c4ccccc4)c(I)c(-c4ccc(OC)cc4)n2[B-]3(F)F)cc1` yielded an Activity of 0.98.

Tested on: not listed separately
Experiment: Fluorescence property of compound assessed as quantum yield in CHCl3 by spectroscopic analysis
Assay type: physicochemical
Conditions: not given
With `COc1ccc(C2=N/C(=N\c3[nH]c(-c4ccc(OC)cc4)cc3-c3ccccc3)C(c3ccccc3)=C2)cc1` the Activity was 0.36.

Tested on: not listed separately
Experiment: Dark toxicity in mouse B16-F10 cells incubated for 3 hrs by CCK-8 assay
Assay type: cell-based
Conditions: not given
Compound `COc1ccc(C2=[N+]3C(=Nc4c(-c5ccccc5)cc(-c5ccc(OC)cc5)n4[B-]3(F)F)C(c3ccccc3)=C2I)cc1` has an IC50 at 3 h greater than 50 µM.
Compound `CCN(CC)Cc1ccc(C2=C(I)C(c3ccc(OC)cc3)=[N+]3C2=Nc2c(-c4ccccc4)c(I)c(-c4ccc(OC)cc4)n2[B-]3(F)F)cc1` has an IC50 at 3 h of 49.9 µM.

Tested on: not listed separately
Experiment: Stability of compound in DMF under dark condition
Assay type: physicochemical
Conditions: not given
With `CCN(CC)Cc1ccc(C2=C(I)C(c3ccc(OC)cc3)=[N+]3C2=Nc2c(-c4ccccc4)c(I)c(-c4ccc(OC)cc4)n2[B-]3(F)F)cc1` the Stability was “Unstable”.
